From patent US20210002301A1, “NOVEL ISOTHIAZOLO-AZEPINONE BICYCLES, PROCESSES FOR THEIR PREPARATION AND THEIR USE AS HERBICIDES AND/OR PLANT GROWTH REGULATORS” (Bayer Aktiengesellschaft, priority 2017, published 2021)

Legend:
Settings in all cases: Dosage 320
HORMU = experiment: Pre-emergence herbicidal test; format: in vivo
SETVI [1] = experiment: Post-emergence herbicidal test; format: in vivo, Setaria viridis
VERPE [2] = experiment: Post-emergence herbicidal test; format: in vivo, Veronica persica
AMARE [3] = experiment: Pre-emergence herbicidal test; format: in vivo, Amaranthus retroflexus
ABUTH [4] = experiment: Post-emergence herbicidal test; format: in vivo, Abutilon theophrasti
PHBPU [5] = experiment: Post-emergence herbicidal test; format: in vivo, Pharbitis purpurea
MATIN = experiment: Pre-emergence herbicidal test; format: in vivo, Matricaria inodora
VIOTR [6] = experiment: Pre-emergence herbicidal test; format: in vivo, Viola tricolor
POLCO [7] = experiment: Pre-emergence herbicidal test; format: in vivo, Polygonum convolvulus
ECHCG [8] = experiment: Post-emergence herbicidal test; format: in vivo, Echinochloa crus-galli
SETVI [9] = experiment: Pre-emergence herbicidal test; format: in vivo, Setaria viridis
ABUTH [10] = experiment: Pre-emergence herbicidal test; format: in vivo, Abutilon theophrasti
STEME [11] = experiment: Post-emergence herbicidal test; format: in vivo, Stellaria media
ALOMY [12] = experiment: Pre-emergence herbicidal test; format: in vivo, Alopecurus myosuroides
ECHCG [13] = experiment: Pre-emergence herbicidal test; format: in vivo, Echinochloa crus-galli
POLCO [14] = experiment: Post-emergence herbicidal test; format: in vivo, Polygonum convolvulus
LOLRI = experiment: Pre-emergence herbicidal test; format: in vivo
STEME [15] = experiment: Pre-emergence herbicidal test; format: in vivo, Stellaria media
VIOTR [16] = experiment: Post-emergence herbicidal test; format: in vivo, Viola tricolor
AMARE [17] = experiment: Post-emergence herbicidal test; format: in vivo, Amaranthus retroflexus
ALOMY [18] = experiment: Post-emergence herbicidal test; format: in vivo, Alopecurus myosuroides
VERPE [19] = experiment: Pre-emergence herbicidal test; format: in vivo, Veronica persica
PHBPU [20] = experiment: Pre-emergence herbicidal test; format: in vivo, Pharbitis purpurea

Compound | SETVI (SETVI [1]) | VERPE (VERPE [2]) | AMARE (AMARE [3]) | ABUTH (ABUTH [4]) | PHBPU (PHBPU [5]) | VIOTR (VIOTR [6]) | POLCO (POLCO [7]) | ECHCG (ECHCG [8]) | SETVI (SETVI [9]) | ABUTH (ABUTH [10]) | STEME (STEME [11]) | ALOMY (ALOMY [12]) | ECHCG (ECHCG [13]) | POLCO (POLCO [14]) | STEME (STEME [15]) | VIOTR (VIOTR [16]) | AMARE (AMARE [17]) | ALOMY (ALOMY [18]) | VERPE (VERPE [19]) | PHBPU (PHBPU [20]) | other results
Nc1nsc2c1C=CCN(CC1CCCCC1)C2=O [Example I-04, 3-amino-7-(cyclohexylmethyl)-6H-isothiazolo[5,4-c]azepin-8-one] | 90 | 90 | 100 | 100 | 100 | 100 | 100 | 100 | 100 | 100 | 100 | 100 | 100 | 100 | 100 | 100 | 100 | 100 | 100 | 100 | HORMU (HORMU): 90; MATIN (MATIN): 100; LOLRI (LOLRI): 100
O=C1c2snc(NC(=O)C(F)(F)C(F)(F)F)c2C=CCN1CC1CCCCC1 [Example I-61] | 80 | 90 | 100 | 80 | 90 | 100 | 100 | 90 | 100 | 100 | 100 | 90 | 100 | 100 | 100 | 100 | 100 | 90 | 100 | 100 | HORMU (HORMU): 100; MATIN (MATIN): 100; LOLRI (LOLRI): 100
O=C(Nc1nsc2c1C=CCN(C1CCCCC1)C2=O)C(F)F [Example I-25] | 100 | 90 | 100 | 100 | 100 | 100 | 100 | 100 | 100 | 100 | 100 | 100 | 100 | 100 | 100 | 100 | 100 | 100 | 100 | 100 | 
